Active and inactive are the calls of the source.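 The calls were made as follows: active = potency, meaning EC50, at or under 10 µM; inactive = the rest.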
Target: Melanocortin receptor 4 (Homo sapiens) (UniProt P32245)
Experiment: MC4R agonists of cAMP signaling, late-stage follow-up, cell-based, FRET (AID 651547)
Settings: MC4R-expressing cells, cAMP TR-FRET (LANCE Ultra), agonist

Melanocortin receptor 4 (Homo sapiens), sequence (P32245 whole entry, looked up): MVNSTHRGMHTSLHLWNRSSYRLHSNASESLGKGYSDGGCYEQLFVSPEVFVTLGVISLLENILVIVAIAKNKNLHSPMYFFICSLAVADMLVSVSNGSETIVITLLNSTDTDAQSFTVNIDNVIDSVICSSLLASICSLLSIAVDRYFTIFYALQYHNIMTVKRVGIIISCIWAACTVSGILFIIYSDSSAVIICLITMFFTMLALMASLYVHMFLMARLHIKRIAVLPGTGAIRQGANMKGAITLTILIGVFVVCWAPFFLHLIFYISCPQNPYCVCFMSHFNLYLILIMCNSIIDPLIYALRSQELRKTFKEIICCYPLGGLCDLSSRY

SMILES | EC50
COc1ccc(N(C(C)=O)C(C(=O)NC2CCCC2)c2cccs2)cc1OC (centres undefined) | > 50 µM (inactive)
COc1ccccc1C1(CCNC(C)c2cccs2)CCOC(C(C)C)C1 (centres undefined) | > 50 µM (inactive)
CC1CCCCN1S(=O)(=O)c1ccc(NC(=O)c2nc(S(C)(=O)=O)ncc2Cl)cc1 (centres undefined) | > 50 µM (inactive)
C#CC(=O)N(c1ccc(OC)c(OC)c1)C(C(=O)NC1CCCC1)c1cccs1 (centres undefined) | > 50 µM (inactive)
CNC(=O)c1cc(Oc2ccc(NC(=O)Nc3ccc(Cl)c(C(F)(F)F)c3)cc2)ccn1 | > 50 µM (inactive)
O=C1c2cccc3cccc(c23)C(=O)N1CC1CCN(CC(O)COc2ccc3ccccc3c2)CC1 (centres undefined) | > 50 µM (inactive)
CCC1CCCCN1S(=O)(=O)c1ccc(NC(=O)c2cccc(S(C)(=O)=O)c2)cc1 (centres undefined) | > 50 µM (inactive)
CNC(=O)c1cc(Oc2ccc(NC(=O)CNc3ccc(Cl)c(C(F)(F)F)c3)cc2)ccn1 | > 50 µM (inactive)
CC(=O)c1ccc(Nc2nc3ccc(C(=O)N(CCC(C)C)CCC(C)C)cc3n2CCCN2CCCCC2)cc1 | > 50 µM (inactive)
CCC1CCCCN1S(=O)(=O)c1ccc(NC(=O)c2ccnc(SC)n2)cc1 (centres undefined) | > 50 µM (inactive)
Cc1ccccc1CN1Cc2cnnn2-c2ccccc2C1C#N (centres undefined) | > 50 µM (inactive)
CNC(=O)c1cc(Oc2ccc(NCC(=O)Nc3ccc(Cl)c(C(F)(F)F)c3)cc2)ccn1 | > 50 µM (inactive)
CCC1CCCCN1S(=O)(=O)c1ccc(NC(=O)c2ccccc2)cc1 (centres undefined) | > 50 µM (inactive)
CCC1CCCCN1S(=O)(=O)c1ccc(NC(=O)c2nc(S(C)(=O)=O)ncc2Cl)cc1 (centres undefined) | > 50 µM (inactive)

— PubChem BioAssay AID651547 (The Scripps Research Institute Molecular Screening Center, 2012)
